According to patent US10150804B2, “Compositions and methods for imaging cancer” (BRITISH COLUMBIA CANCER AGENCY BRANCH, priority 2014, dated 2018):
Where two headings read alike, the source gives them in different places.

Legend:
sstr1 = biological target: T1, sstr1 (Homo sapiens, UniProt P30872); experiment: standard filtration competitive binding assay, sstr1 membranes; details: 0.2 nM 125I standard
T1 construct: purchased PerkinElmer; host or cells: Chinese hamster ovary K1 cells (transfected)
T1 sequence (P30872 whole entry): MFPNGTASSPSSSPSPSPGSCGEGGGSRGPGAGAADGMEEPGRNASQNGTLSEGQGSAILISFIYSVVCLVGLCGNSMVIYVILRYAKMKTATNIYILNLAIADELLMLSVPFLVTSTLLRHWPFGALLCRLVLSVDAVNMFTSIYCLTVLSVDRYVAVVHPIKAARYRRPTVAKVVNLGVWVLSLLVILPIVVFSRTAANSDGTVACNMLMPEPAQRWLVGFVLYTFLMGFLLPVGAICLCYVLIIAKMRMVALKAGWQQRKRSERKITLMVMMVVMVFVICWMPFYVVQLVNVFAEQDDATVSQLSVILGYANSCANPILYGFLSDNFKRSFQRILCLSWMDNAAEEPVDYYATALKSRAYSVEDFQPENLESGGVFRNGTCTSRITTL
Method: After successful synthesis, the activity of ^19F-AMBF3-TATE was examined in vitro. Membranes from Chinese hamster ovary K1 cells transfected with sstr1, sstr2, sstr3, sstr5, and [^125I]-Tyr-somatostatin-14 were obtained from PerkinElmer. […] Briefly, membranes ([…]) were incubated with the ^125I-labelled standard at a concentration of 0.05 nM for sstr2 or 0.2 nM for other subtypes. […] After incubation (37° C., 1 h), the wells were aspirated and washed 8 times with 50 mM ice-cold buffer (Tris-HCl, pH 7.4) over grade GF/B filters. The filters were removed and counted by a γ counter (Cobra II; Packard). Data were fitted to a 1-site competition model (GraphPad Prism 6.1 software) to calculate Ki.

[1] = 19F-NMR kinetic analysis of solvolysis/defluoridation of AMBF3; assay type: physicochemical
Method: Data are scaled 1000,000 min.

[2] = tested on: AR42J tumour-bearing mice; details: excess competitor 69/71Ga-DOTATATE
Method: After labelling, imaging was undertaken. […] Rat pancreatic adenocarcinoma cells (10^7 AR42J cells) were freshly expanded in a mixture of phosphate-buffered saline and Matrigel (Corning) and inoculated subcutaneously in female immunocompromised mice (NOD SCID [non-obese diabetic severe combined immunodeficient] IL2r-γ-null, bred in house). The tumours were grown for 2 wk until they reached 5-7 mm in diameter. […] Sixty minutes after injection, the mice were anesthetized with isoflurane and euthanized by carbon dioxide. The organs were harvested, rinsed with saline, blotted dry, and collected in previously weighed tubes. The tubes containing the organs were counted in a Cobra-II γ counter. The tissue weight and associated count per minute were used to calculate the percentage injected dose per gram of tissue (% ID/g). Images were acquired using a multimodality PET/CT system (Inveon; Siemens).

For `C[C@@H](O)[C@H](NC(=O)[C@@H]1CSSC[C@H](NC(=O)[C@@H](Cc2ccccc2)NC(=O)Cn2cc(C[N+](C)(C)C[B-](F)(F)F)nn2)C(=O)N[C@@H](Cc2ccc(O)cc2)C(=O)N[C@H](Cc2c[nH]c3ccccc23)C(=O)N[C@@H](CCCCN)C(=O)N[C@@H]([C@@H](C)O)C(=O)N1)C(=O)O` [AMBF3-TATE], the “displacement of binding to sstr1” value (sstr1) was “No significant displacement”.
In the case of `C#CC[N+](C)(C)C[B-](F)(F)F` [alkynyl-AMBF3, N-propargyl-N,N-dimethyl-ammoniomethyltrifluoroborate], the half-life ([1]; 19F NMR, read-out: solvolysis t1/2 (converted)) is reported as 312 h and the half-life ([1]; 19F-NMR, first-order fit (FIG. 10), read-out: half-life of defluoridation) is reported as 0.325 h.
For ^18F-AMBF3-TATE, the “blocking efficiency (tumour uptake)” value [2] was 97%.
